Measurements from patent publication US4409207A, “Derivatives of clavulanic acid, a process for their preparation and their use” (Beecham Group Limited, priority 1978, dated 1983).

Key:
Staph. Russell = experiment: standard MIC test of ampicillin with synergist, Staph. Russell; format: cell-based
From the text: (§1) The synergist referred to hereinafter is sodium 9-O-carboxamidomethylclavulanate.

Kleb. E 70 = experiment: standard MIC test of ampicillin with synergist, Kleb. E 70; format: cell-based
From the text: as §1

Proteus C889 = experiment: standard MIC test of ampicillin with synergist, Proteus C889; format: cell-based; conditions: 0 μg/ml synergist (ampicillin alone)
From the text: as §1

E. Coli JT 39 = experiment: standard MIC test of ampicillin with synergist, E. Coli JT 39; format: cell-based
From the text: as §1

[1] = toxic effects during testing at therapeutic doses in animals; format: in vivo
[2] = tested on: Staph. Russell, Kleb. E 70, Proteus C889, E. Coli JT 39; experiment: standard MIC tests, synergy statement; format: cell-based; conditions: with ampicillin
From the text: as §1

E. coli JT 39 infection = E. coli JT 39 infection in mice, CD50 of amoxycillin with subcutaneous synergist; format: in vivo
[3] = 0 μg/ml synergist (ampicillin alone)
[4] = synergist alone, obtained in separate test

CC1(C)S[C@@H]2[C@H](NC(=O)[C@H](N)c3ccccc3)C(=O)N2[C@H]1C(=O)O [Ampicillin, reference compound]
MIC of Ampicillin (Staph. Russell; [3]): > 32 µg/mL | MIC of Ampicillin (Kleb. E 70; [3]): > 32 µg/mL | MIC of Ampicillin (Proteus C889): > 32 µg/mL | MIC of Ampicillin (E. Coli JT 39; [3]): > 32 µg/mL

NC(=O)COC/C=C1\O[C@@H]2CC(=O)N2[C@H]1C(=O)O [Example 2, Sodium 9-O-carboxamidomethylclavulanate]
MIC (Staph. Russell; [4]): 31 µg/mL | overt toxic symptoms ([1]; in vivo): No overt toxic symptoms were observed | animal deaths due to toxic effects ([1]; therapeutic doses): did not cause animal deaths due to toxic effects | MIC (Kleb. E 70; [4]): 31 µg/mL | MIC (E. Coli JT 39; Escherichia coli, synergist alone, obtained in separate test): 31 µg/mL | synergy in standard MIC tests [2]: demonstrated synergy | effect of the compound alone on infection (E. coli JT 39 infection; compound of this example alone at 2 mg/kg×2): no effect

CC1(C)S[C@@H]2[C@H](NC(=O)[C@H](N)c3ccc(O)cc3)C(=O)N2[C@H]1C(=O)O [amoxycillin, reference compound]
CD50 of amoxycillin (E. coli JT 39 infection; amoxycillin alone): greater than 500 mg/kg×2
